Test results taken from patent publication US9238030B2, “Methods for treatment of diseases and disorders related to transducin β-like protein 1 (TBL1) activity, including myeloproliferative neoplasia and chronic myeloid leukemia” (Beta Cat Pharmaceuticals, LLC, priority 2011, dated 2016).

Key:
β-catenin [1] = assay: Western blot, proteasomal degradation of β-catenin in AML cells (FIG. 6C); format: cell-based
Method: As one can see, there is less of β-catenin in the AML cells treated with 100 nM of Compound 1 for 8 hours as compared to non-treated AML cells. However, when 10 nM of Carfilzomib (CZ) (a proteasome inhibitor) were administered to the same AML cells, the amount of β-catenin increased.

[2] = test system: β-catenin, c-MYC, Cyclin D1 and p21; assay: Levels of β-catenin, c-MYC, Cyclin D1 and p21 in AML cells (FIG. 7C); format: cell-based; conditions: 100 nM
Method: FIG. 7C contains the bar chart of the effect of administering 100 nM of Compound 1 to AML cells on levels of β-catenin, c-MYC, Cyclin D1 and p21 (control).

HEL 92.1.7 cells [3] = assay: Mouse model of human MPN, survival; format: in vivo, NOD-SCID mice; conditions: 15 or 20 mg/Kg b.i.w for three weeks via the tail vein; p<001
Method: Briefly, NOD-SCID mice were sub-lethally irradiated and HEL 92.1.7 cells were infused into the tail vein and MPN established. Mice were treated with 15 or 20 mg/Kg of Compound 1 administered b.i.w for three weeks via the tail vein. Animals were followed for survival after dosing stopped.

OCI-AML3 xenograft cells = assay: Survival of NSG mice with established AML by OCI-AML3 xenograft; format: in vivo; conditions: three weeks, twice per week tail vein infusion
HEL 92.1.7 cells [4] = assay: Apoptosis of MPN cells, annexin V / TOPRO3 flow cytometry; format: cell-based
Method: (§1) Briefly, the cell lines HEL 92.1.7 (FIGS. 1A and 1C) and UKE1 (FIGS. 1B and 1D) were seeded in medium containing 10% FBS and penicillin/streptomycin. After 24 hours, the cells were treated with either: 1) Compound 1; or 2) Compound 1 in combination with TG101209 for 48 hours. At the end of treatment, cells were washed with 1×PBS and stained with annexin V and TOPRO3 iodide. The percentages of apoptotic cells were determined by flow cytometry.

UKE1 cells = assay: as above; format: cell-based
Method: as §1

β-catenin [5] = assay: Western blot of AML cells (FIG. 5C); format: cell-based; conditions: 100 nM
K562 cells = assay: Apoptosis of CML cells, annexin V / TOPRO3 flow cytometry; format: cell-based, human
Method: (§2) Briefly, cell lines K562 (human immortalized myelogenous leukemia line) and LAMA-84 (a human leucocytic cell line) were seeded in medium containing 10% FBS and penicillin/streptomycin. After 24 hours, the cells were treated with Compound 1 for 48 hours. At the end of the treatment, the cells were washed with 1×PBS and stained with annexin V and TOPRO3 iodide. The percentages of apoptotic cells were determined by flow cytometry.
(§3) Briefly, the cell lines K562 and LAMA-84, were seeded in medium containing 10% FBS and penicillin/streptomycin. After 24 hours, the cells were treated with either: 1) Compound 1 alone; or 2) in combination with panobinostat and nilotinib for 48 hours. At the end of treatment, cells were washed with 1×PBS and stained with annexin V and TOPRO3 iodide. The percentages of apoptotic cells were determined by flow cytometry.

LAMA-84 cells = assay: as above; format: cell-based, human
Method: as §2, §3

[6] = test system: TCF reporter plasmid (TOP-FLASH); assay: TOP-FLASH and FOP-FLASH luciferase activity in AML cells; format: cell-based; conditions: 20 nM, 50 nM, and 100 nM
Excerpt: FIG. 7A depicts a bar chart of TOP-FLASH and FOP-FLASH luciferase activity versus treatment of AML cells with different amounts of Compound 1.
TOP-FLASH is a Transfection grade T-cell factor (TCF) reporter plasmid containing two sets (with the second set in the reverse orientation) of three copies of the TCF binding site (wild type) upstream of the Thymidine Kinase (TK) minimal promoter and Luciferase open reading frame.
FOP-FLASH is a reporter plasmid containing mutated TCF binding sites is a negative control.
There was no reduction in FOP-FLASH (negative control).

[7] = test system: CD34+ Primary FLT3-ITD AML cells; assay: % of non-viable cells, in vitro apoptosis; format: cell-based; conditions: various amounts
[8] = target: T1, binding of β-catenin to TBL1 (Homo sapiens, UniProt O60907); assay: Staining of AML cells with anti-β-catenin antibody, anti-TBL1 antibody and DAPI (FIG. 6B); format: cell-based; conditions: 100 nM, 16 hours
T1 construct: endogenous in cells; host or cells: AML cells
T1 sequence (O60907 1-577): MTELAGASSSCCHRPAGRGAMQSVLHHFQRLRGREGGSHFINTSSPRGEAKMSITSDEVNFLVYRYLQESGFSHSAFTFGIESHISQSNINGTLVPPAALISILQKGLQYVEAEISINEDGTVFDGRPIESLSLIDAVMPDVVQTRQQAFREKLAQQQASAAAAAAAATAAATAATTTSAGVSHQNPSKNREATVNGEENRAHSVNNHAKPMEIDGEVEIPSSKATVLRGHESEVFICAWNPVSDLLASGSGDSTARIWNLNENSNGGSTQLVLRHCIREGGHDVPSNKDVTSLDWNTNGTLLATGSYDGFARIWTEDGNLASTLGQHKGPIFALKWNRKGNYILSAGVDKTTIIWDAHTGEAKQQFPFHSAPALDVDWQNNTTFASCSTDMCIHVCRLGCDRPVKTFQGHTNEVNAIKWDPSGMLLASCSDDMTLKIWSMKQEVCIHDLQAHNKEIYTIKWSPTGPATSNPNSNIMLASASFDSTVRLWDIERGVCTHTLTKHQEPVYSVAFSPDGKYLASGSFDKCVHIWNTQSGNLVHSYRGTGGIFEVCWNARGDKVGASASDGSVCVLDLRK
Method: FIG. 6B is a series of photographs of stained AML cells with and without prior administration of Compound 1. The top panel depicts control cells (without prior administration of Compound 1) and the bottom panel depicts AML cells following administration of 100 nM of Compound 1 for 16 hours. The cells were stained with the anti-β-catenin antibody, anti-TBL1 antibody, and DAPI nucleic acid stain. The photographs of TBL1 and anti-beta-catenin stains were also merged. […] Compare especially the top right photograph and the bottom right photograph.

[9] = test system: CD34+ CD38-Lin-Primary AML cells; assay: % of non-viable cells, in vitro apoptosis; format: cell-based; conditions: various amounts
[10] = test system: primary FLT3-ITD AML xenograft; assay: Survival of NSG mice with primary FLT3-ITD AML xenograft; format: in vivo; conditions: 10 mg/kg, three weeks, twice per week intravenous infusion
Excerpt: Very similar results were obtained in NSG mice with primary FLT3-ITD AML xenograft.

β-catenin [11] = assay: Western blot of primary AML cells (FIG. 6A); format: cell-based; conditions: 100 nM, 8 hours
[12] = test system: β-catenin at target gene promoters; assay: chIP (Chromatin immunoprecipitation) analysis in AML cells; format: cell-based; conditions: 200 nM, 8 hours
Excerpt: FIG. 7B contains the bar chart of the results of chIP (Chromatin immunoprecipitation) analysis of the effect of treating AML cells with Compound 1.

CD34+ MPN cells = assay: Apoptosis of primary MPN cells isolated from patients; format: cell-based
Method: Briefly, the CD34+ cells isolated from bone marrow of MPN patients, were seeded in medium containing 10% FBS and penicillin/streptomycin. After 24 hours, the cells were treated with Compound 1 for 48 hours or Compound 1 in combination with TG101209. At the end of treatment, cells were washed with 1×PBS and stained with annexin V and TOPRO3 iodide. The percentages of apoptotic cells were determined by flow cytometry. Combination index (CI) was determined using the method of Chou-Talalay (Adv. Enzyme Regul. 22, 27-55).

β-catenin [13] = assay: β-catenin expression and nuclear localization, staining with anti-β-catenin antibody and DAPI; format: cell-based; conditions: CD34+ Primary FLT3-ITD AML cells, 100 nM, 16 hours
Excerpt: Briefly, CD34+ Primary AML cells, CD34+ Primary FLT3-ITD AML cells and CD34+ Normal cells were stained with anti-β-catenin antibody and DAPI nucleic acid stain. The photographs of these stains were also merged. The photographs of the stained cells are contained in FIG. 5A. As these photographs show, there is a lot of β-catenin expressed in both types of AML cells, and β-catenin is concentrated in nuclei of these cells.
As one can see, compared to control cells (i.e., not treated with Compound 1), this treatment leads to depletion of β-catenin expression and nuclear localization in AML cells.

[14] = test system: CD34+ Primary FLT3-WT AML cells; assay: % of non-viable cells, in vitro apoptosis; format: cell-based; conditions: various amounts
[15] = in combination with Compound 1, 48 hours

CC(C)C[C@H](NC(=O)[C@H](CCc1ccccc1)NC(=O)CN1CCOCC1)C(=O)N[C@@H](Cc1ccccc1)C(=O)N[C@@H](CC(C)C)C(=O)[C@@]1(C)CO1 [Carfilzomib, reference compound]
amount of β-catenin (β-catenin [1]; 10 nM Carfilzomib administered to the same AML cells treated with Compound 1): increased

C[C@@H]1C[C@H](C)CN(S(=O)(=O)c2ccc3c(c2)C(=NO)c2cc(S(=O)(=O)N4C[C@H](C)C[C@H](C)C4)ccc2C3=NO)C1 [Compound 1]
expression of Cyclin D1 [2]: lower expression
expression of c-MYC [2]: lower expression
expression of p21 [2]: much higher expression
expression of β-catenin [2]: lower expression
survival compared to the control (HEL 92.1.7 cells [3]): significantly improved survival
survival compared to the control mice (OCI-AML3 xenograft cells; 5 mg/kg): improved survival
survival compared to the control mice (OCI-AML3 xenograft cells; 10 mg/kg): improved survival
apoptosis of HEL 92.1.7 cells (HEL 92.1.7 cells [4]; Compound 1 alone, 48 hours): induced apoptosis
apoptosis of UKE1 cells (UKE1 cells; Compound 1 alone, 48 hours): induced apoptosis
Survivin level, Western blot (β-catenin [5]): about the same levels
TBL1 level, Western blot (β-catenin [5]): about the same levels
c-MYC level, Western blot (β-catenin [5]): about the same levels
β-actin level, Western blot (β-catenin [5]): about the same levels
β-catenin expression, Western blot (β-catenin [5]): less
effect at S or G2/M phases of the cell cycle (K562 cells; K562, 48 hours): did not have significant effect
number of apoptotic cells at G0/G1 phase of the cell cycle (K562 cells; K562, 48 hours): increased
number of apoptotic cells (K562 cells; K562, Compound 1 alone, 48 hours): increased
effect at S or G2/M phases of the cell cycle (LAMA-84 cells; LAMA-84, 48 hours): did not have significant effect
number of apoptotic cells at G0/G1 phase of the cell cycle (LAMA-84 cells; LAMA-84, 48 hours): increased
number of apoptotic cells (LAMA-84 cells; LAMA-84, Compound 1 alone, 48 hours): increased
FOP-FLASH luciferase activity (negative control) [6]: no reduction
TOP-FLASH luciferase activity (expression of β-catenin as measured by this luciferase assay) [6]: much lower expression
in vitro apoptosis (% of non-viable cells) [7]: significantly induced in vitro apoptosis
binding of β-catenin to TBL1, staining [8]: severely disrupted
levels of β-catenin, staining [8]: depleted
in vitro apoptosis (% of non-viable cells) [9]: significantly induced in vitro apoptosis
% survival compared to the control mice [10]: dramatic increase
β-catenin, Western blot (β-catenin [11]): less
fate of β-catenin (β-catenin [1]; AML cells): proteasomal degradation
β-catenin compared to non-treated AML cells, Western blot (β-catenin [1]; AML cells, 100 nM, 8 hours): less
amount of promoter DNA of CCND1, chIP [12]: reduced amount
amount of promoter DNA of c-MYC, chIP [12]: reduced amount
amount of promoter DNA of survivin, chIP [12]: reduced amount
apoptosis of CD34+ MPN cells (CD34+ MPN cells; 100 nM or above, 48 hours): induced apoptosis
β-catenin expression and nuclear localization (β-catenin [13]): depletion
in vitro apoptosis (% of non-viable cells) [14]: significantly induced in vitro apoptosis

Cc1cnc(Nc2ccc(N3CCN(C)CC3)cc2)nc1Nc1cccc(S(=O)(=O)NC(C)(C)C)c1 [TG101209, N-tert-butyl-3-[[5-methyl-2-[4-(4-methylpiperazin-1-yl)anilino]pyrimidin-4-yl]amino]benzenesulfonamide, reference compound]
effect on apoptosis induced by Compound 1, HEL 92.1.7 cells (HEL 92.1.7 cells [4]; [15]): enhanced
effect on apoptosis induced by Compound 1, UKE1 cells (UKE1 cells; [15]): enhanced
effect on apoptosis induced by Compound 1, CD34+ MPN cells (CD34+ MPN cells; in combination with Compound 1): enhanced

Cc1cn(-c2cc(NC(=O)c3ccc(C)c(Nc4nccc(-c5cccnc5)n4)c3)cc(C(F)(F)F)c2)cn1 [nilotinib, reference compound]
effect on apoptosis induced by Compound 1 (K562 cells; K562, in combination with Compound 1, 48 hours): enhanced
effect on apoptosis induced by Compound 1 (LAMA-84 cells; LAMA-84, in combination with Compound 1, 48 hours): enhanced
